How the values were obtained:
WD/DDLS cell lines = assay: annexin V staining (apoptosis); format: cell-based, human; conditions: PD0332991, 48 hours, any of the seven cell lines
Method: FIG. 1A-C. […] Mean percentage of BrdU incorporation or annexin V+/7-AAD− cells was calculated from three or more independent experiments. Error bars represent standard deviation (*p<0.05).
FIG. 13A-B. Nutlin-3a induces apoptosis in all the liposarcoma cell lines. The indicated cell lines were treated with nutlin-3a or vehicle control and extracts were prepared for immunoblotting (A) or annexin V staining (B) forty-eight hours after treatment. Mean percentage of annexin V+/7-AAD− cells was calculated from three or more independent experiments. Error bars represent standard deviation (*p<0.05).
(§1) Cells were stained with BrdU (20 μM for two hours) or annexin V as previously described (22, 48). […] was determined by staining with propidium iodine and FACS analyses (49).

RB-positive WD/DDLS = conditions: two patients with RB-positive WD/DDLS; cited from earlier work
DKMG glioma cells = assay: PD-induced growth arrest (BrdU incorporation); format: cell-based; conditions: BrdU incorporation 7 days after treatment
Method: (§2) Cell lines were maintained in DMEM High glucose (HG) supplemented with 10% heat-inactivated fetal bovine serum. Glioma cell lines, DKMG, SNB19, DBTRG-05MG, and […], were maintained in DMEM HG supplemented with 10% fetal bovine serum and 2 mM glutamine. The MCF7 breast cancer cell line was maintained in RPMI-1640 media supplemented with 10% fetal bovine serum and 2 mM glutamine.
(§3) shRNA were delivered in the pLKO.1 vector (Sigma) and infected cells selected using puromycin (1 μg/ml); infection with a virus carrying a scramble control ([…]) was used as a control in all experiments utilizing shRNA. Cell lines were treated with […] or shRNA directed against CDK4 ([…] (SEQ ID NO:4)), MDM2 (M376, […] (SEQ ID NO:5); M380, […] (SEQ ID NO:6)), HAUSP (4057, […] (SEQ ID NO:7); 845, […] (SEQ ID NO:8)) or CDK6 ([…] (SEQ ID NO:9)) for 48 hours to 7 days and stained with BrdU (20 μM for two hours) or annexin V as previously described (22, 48). […] was determined by staining with propidium iodine and FACS analyses (49).
as §1

DBTRG-05MG glioma cells = assay: PD-induced growth arrest (BrdU incorporation); format: cell-based; conditions: BrdU incorporation 7 days after treatment
Method: as §2, §3, §1

MCF7 breast cancer cells = assay: PD-induced growth arrest (BrdU incorporation); format: cell-based; conditions: BrdU incorporation 7 days after treatment
Method: as §2, §3, §1

## CC(=O)c1c(C)c2cnc(Nc3ccc(N4CCNCC4)cn3)nc2n(C2CCCC2)c1=O [PD0332991]
WD/DDLS cell lines
  annexin V staining, a marker of apoptosis: did not induce a significant change
RB-positive WD/DDLS
  clinical response: prolonged stable disease lasting several years
DKMG glioma cells
  PD-induced growth arrest: + (BrdU incorporation is reduced at least 8X 7 days after treatment with the drug)
DBTRG-05MG glioma cells
  PD-induced growth arrest: + (BrdU incorporation is reduced at least 8X 7 days after treatment with the drug)
MCF7 breast cancer cells
  PD-induced growth arrest: + (BrdU incorporation is reduced at least 8X 7 days after treatment with the drug)

— patent US9889135B2, “Companion diagnostic for CDK4 inhibitors” (Memorial Sloan-Kettering Cancer Center, priority 2013, dated 2018)
